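Dose response: 5 concentrations. Exposure: 48 h. Format: 96-well plates. Endpoint: linear interpolation; highest concentration if not reached. GI50 marks 50% less growth. At the TGI there is no net growth.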
What was measured:
Experiment in all cases: NCI anticancer screen, dose series, 48 h
786-0 renal = system: 786-0 renal
A549 NSCLC = system: A549 NSCLC
ACHN renal = system: ACHN renal
BT-549 breast = system: BT-549 breast
CAKI-1 renal = system: CAKI-1 renal
COLO 205 colon = system: COLO 205 colon
EKVX NSCLC = system: EKVX NSCLC
HCT-116 colon = system: HCT-116 colon
HCT-15 colon = system: HCT-15 colon
HOP-62 NSCLC = system: HOP-62 NSCLC
HOP-92 NSCLC = system: HOP-92 NSCLC
HT29 colon = system: HT29 colon
IGROV1 ovarian = system: IGROV1 ovarian
K-562 leukemia = system: K-562 leukemia
KM12 colon = system: KM12 colon
LOX IMVI melanoma = system: LOX IMVI melanoma
M14 melanoma = system: M14 melanoma
MCF7 breast = system: MCF7 breast
MDA-MB-231 breast = system: MDA-MB-231 breast
MDA-MB-435 = system: MDA-MB-435
MOLT-4 leukemia = system: MOLT-4 leukemia
NCI-H226 lung = system: NCI-H226 lung
NCI-H23 lung = system: NCI-H23 lung
NCI-H460 lung = system: NCI-H460 lung
NCI-H522 lung = system: NCI-H522 lung
NCI/ADR-RES ovarian = system: NCI/ADR-RES ovarian
OVCAR-3 ovarian = system: OVCAR-3 ovarian
OVCAR-5 ovarian = system: OVCAR-5 ovarian
OVCAR-8 ovarian = system: OVCAR-8 ovarian
PC-3 prostate = system: PC-3 prostate
RXF 393 renal = system: RXF 393 renal
SF-268 CNS = system: SF-268 CNS
SF-295 CNS = system: SF-295 CNS
SK-MEL-2 melanoma = system: SK-MEL-2 melanoma
SK-MEL-28 melanoma = system: SK-MEL-28 melanoma
SK-MEL-5 melanoma = system: SK-MEL-5 melanoma
SN12C renal = system: SN12C renal
SNB-19 CNS = system: SNB-19 CNS
SW-620 colon = system: SW-620 colon
T-47D breast = system: T-47D breast
TK-10 renal = system: TK-10 renal
U251 CNS = system: U251 CNS
UACC-257 melanoma = system: UACC-257 melanoma
UACC-62 melanoma = system: UACC-62 melanoma
UO-31 renal = system: UO-31 renal
A498 renal = system: A498 renal
CCRF-CEM leukemia = system: CCRF-CEM leukemia
DU-145 prostate = system: DU-145 prostate
HCC-2998 colon = system: HCC-2998 colon
HL-60(TB) leukemia = system: HL-60(TB) leukemia
HS 578T breast = system: HS 578T breast
MALME-3M melanoma = system: MALME-3M melanoma
OVCAR-4 ovarian = system: OVCAR-4 ovarian
RPMI-8226 leukemia = system: RPMI-8226 leukemia
SF-539 CNS = system: SF-539 CNS
SK-OV-3 ovarian = system: SK-OV-3 ovarian
SNB-75 CNS = system: SNB-75 CNS

O=C(/C=C/c1cc(O)ccc1O)c1ccc(Cl)cc1
GI50 (786-0 renal): 17.8 µM
TGI (786-0 renal): 61 µM
GI50 (A549 NSCLC): 31.8 µM
TGI (A549 NSCLC): > 100 µM
GI50 (ACHN renal): 25.2 µM
TGI (ACHN renal): > 100 µM
GI50 (BT-549 breast): 25.9 µM
TGI (BT-549 breast): 51.8 µM
GI50 (CAKI-1 renal): 44 µM
TGI (CAKI-1 renal): > 100 µM
GI50 (COLO 205 colon): 38.2 µM
TGI (COLO 205 colon): > 100 µM
GI50 (EKVX NSCLC): 23.4 µM
TGI (EKVX NSCLC): 54.7 µM
GI50 (HCT-116 colon): 16.7 µM
TGI (HCT-116 colon): 41.6 µM
GI50 (HCT-15 colon): 28 µM
TGI (HCT-15 colon): > 100 µM
GI50 (HOP-62 NSCLC): 20.5 µM
TGI (HOP-62 NSCLC): 52.2 µM
GI50 (HOP-92 NSCLC): > 100 µM
TGI (HOP-92 NSCLC): > 100 µM
GI50 (HT29 colon): 54.4 µM
TGI (HT29 colon): > 100 µM
GI50 (IGROV1 ovarian): > 100 µM
TGI (IGROV1 ovarian): > 100 µM
GI50 (K-562 leukemia): 46.1 µM
TGI (K-562 leukemia): > 100 µM
GI50 (KM12 colon): 31.8 µM
TGI (KM12 colon): > 100 µM
GI50 (LOX IMVI melanoma): 18.4 µM
TGI (LOX IMVI melanoma): 48.4 µM
GI50 (M14 melanoma): 19.8 µM
TGI (M14 melanoma): 47.1 µM
GI50 (MCF7 breast): 48.5 µM
TGI (MCF7 breast): > 100 µM
GI50 (MDA-MB-231 breast): 11.7 µM
TGI (MDA-MB-231 breast): 43.5 µM
GI50 (MDA-MB-435): 30 µM
TGI (MDA-MB-435): > 100 µM
GI50 (MOLT-4 leukemia): > 100 µM
TGI (MOLT-4 leukemia): > 100 µM
GI50 (NCI-H226 lung): 22.3 µM
TGI (NCI-H226 lung): 66.8 µM
GI50 (NCI-H23 lung): 19.1 µM
TGI (NCI-H23 lung): 43.3 µM
GI50 (NCI-H460 lung): 32.5 µM
TGI (NCI-H460 lung): > 100 µM
GI50 (NCI-H522 lung): 61.8 µM
TGI (NCI-H522 lung): > 100 µM
GI50 (NCI/ADR-RES ovarian): 19.6 µM
TGI (NCI/ADR-RES ovarian): 53.9 µM
GI50 (OVCAR-3 ovarian): 57.7 µM
TGI (OVCAR-3 ovarian): > 100 µM
GI50 (OVCAR-5 ovarian): 17.4 µM
TGI (OVCAR-5 ovarian): 38.7 µM
GI50 (OVCAR-8 ovarian): 57.2 µM
TGI (OVCAR-8 ovarian): > 100 µM
GI50 (PC-3 prostate): 90.4 µM
TGI (PC-3 prostate): > 100 µM
GI50 (RXF 393 renal): > 100 µM
TGI (RXF 393 renal): > 100 µM
GI50 (SF-268 CNS): 20.7 µM
TGI (SF-268 CNS): > 100 µM
GI50 (SF-295 CNS): 35.3 µM
TGI (SF-295 CNS): > 100 µM
GI50 (SK-MEL-2 melanoma): 60.7 µM
TGI (SK-MEL-2 melanoma): > 100 µM
GI50 (SK-MEL-28 melanoma): 60.4 µM
TGI (SK-MEL-28 melanoma): > 100 µM
GI50 (SK-MEL-5 melanoma): 55 µM
TGI (SK-MEL-5 melanoma): > 100 µM
GI50 (SN12C renal): 18.1 µM
TGI (SN12C renal): 44.7 µM
GI50 (SNB-19 CNS): 36.8 µM
TGI (SNB-19 CNS): > 100 µM
GI50 (SW-620 colon): 61.9 µM
TGI (SW-620 colon): > 100 µM
GI50 (T-47D breast): 36.5 µM
TGI (T-47D breast): > 100 µM
GI50 (TK-10 renal): 31.6 µM
TGI (TK-10 renal): > 100 µM
GI50 (U251 CNS): 19.6 µM
TGI (U251 CNS): 51.2 µM
GI50 (UACC-257 melanoma): 51.3 µM
TGI (UACC-257 melanoma): > 100 µM
GI50 (UACC-62 melanoma): 17.5 µM
TGI (UACC-62 melanoma): 40.1 µM
GI50 (UO-31 renal): 96.7 µM
TGI (UO-31 renal): > 100 µM

CN1CCC(n2cnc(-c3ccc(F)cc3)c2-c2ccnc(Nc3ccccc3)n2)CC1
GI50 (786-0 renal): 8.4 µM
TGI (786-0 renal): > 25 µM
GI50 (A498 renal): 7.77 µM
TGI (A498 renal): > 25 µM
GI50 (A549 NSCLC): 2.81 µM
TGI (A549 NSCLC): > 25 µM
GI50 (ACHN renal): 1.14 µM
TGI (ACHN renal): > 25 µM
GI50 (BT-549 breast): 10.4 µM
TGI (BT-549 breast): > 25 µM
GI50 (CAKI-1 renal): 1.79 µM
TGI (CAKI-1 renal): > 15.3 µM
GI50 (CCRF-CEM leukemia): 12.1 µM
TGI (CCRF-CEM leukemia): > 25 µM
GI50 (COLO 205 colon): 3.34 µM
TGI (COLO 205 colon): 7.19 µM
GI50 (DU-145 prostate): 10.4 µM
TGI (DU-145 prostate): > 25 µM
GI50 (EKVX NSCLC): 3.75 µM
TGI (EKVX NSCLC): > 25 µM
GI50 (HCC-2998 colon): 6.76 µM
TGI (HCC-2998 colon): > 25 µM
GI50 (HCT-116 colon): 7.27 µM
TGI (HCT-116 colon): > 25 µM
GI50 (HCT-15 colon): 6.22 µM
TGI (HCT-15 colon): > 25 µM
GI50 (HL-60(TB) leukemia): 9.65 µM
TGI (HL-60(TB) leukemia): > 23.2 µM
GI50 (HOP-62 NSCLC): 13.1 µM
TGI (HOP-62 NSCLC): > 25 µM
GI50 (HOP-92 NSCLC): 5.18 µM
TGI (HOP-92 NSCLC): 24.6 µM
GI50 (HS 578T breast): 11.5 µM
TGI (HS 578T breast): > 25 µM
GI50 (HT29 colon): 3.95 µM
TGI (HT29 colon): > 25 µM
GI50 (IGROV1 ovarian): 3.04 µM
TGI (IGROV1 ovarian): > 13.1 µM
GI50 (K-562 leukemia): 5.94 µM
TGI (K-562 leukemia): > 25 µM
GI50 (KM12 colon): 8.11 µM
TGI (KM12 colon): > 25 µM
GI50 (LOX IMVI melanoma): 5.78 µM
TGI (LOX IMVI melanoma): > 25 µM
GI50 (M14 melanoma): 5.58 µM
TGI (M14 melanoma): 14.7 µM
GI50 (MALME-3M melanoma): 4.77 µM
TGI (MALME-3M melanoma): 12.4 µM
GI50 (MCF7 breast): 1.83 µM
TGI (MCF7 breast): > 25 µM
GI50 (MDA-MB-231 breast): 13.6 µM
TGI (MDA-MB-231 breast): > 25 µM
GI50 (MDA-MB-435): 3.64 µM
TGI (MDA-MB-435): 11.9 µM
GI50 (MOLT-4 leukemia): 12 µM
TGI (MOLT-4 leukemia): > 25 µM
GI50 (NCI-H226 lung): 18.3 µM
TGI (NCI-H226 lung): > 25 µM
GI50 (NCI-H23 lung): 16.3 µM
TGI (NCI-H23 lung): > 25 µM
GI50 (NCI-H460 lung): 5.39 µM
TGI (NCI-H460 lung): > 25 µM
GI50 (NCI-H522 lung): 5.73 µM
TGI (NCI-H522 lung): > 15.7 µM
GI50 (NCI/ADR-RES ovarian): 7.65 µM
TGI (NCI/ADR-RES ovarian): > 25 µM
GI50 (OVCAR-3 ovarian): 7.65 µM
TGI (OVCAR-3 ovarian): > 25 µM
GI50 (OVCAR-4 ovarian): 8.12 µM
TGI (OVCAR-4 ovarian): > 25 µM
GI50 (OVCAR-5 ovarian): 15 µM
TGI (OVCAR-5 ovarian): > 25 µM
GI50 (OVCAR-8 ovarian): 8.86 µM
TGI (OVCAR-8 ovarian): > 25 µM
GI50 (PC-3 prostate): 12.2 µM
TGI (PC-3 prostate): > 25 µM
GI50 (RPMI-8226 leukemia): > 20.8 µM
TGI (RPMI-8226 leukemia): > 25 µM
GI50 (RXF 393 renal): 10.5 µM
TGI (RXF 393 renal): > 25 µM
GI50 (SF-268 CNS): 9.91 µM
TGI (SF-268 CNS): > 25 µM
GI50 (SF-295 CNS): > 19.2 µM
TGI (SF-295 CNS): > 25 µM
GI50 (SF-539 CNS): 13.2 µM
TGI (SF-539 CNS): > 25 µM
GI50 (SK-MEL-2 melanoma): 11.3 µM
TGI (SK-MEL-2 melanoma): > 25 µM
GI50 (SK-MEL-28 melanoma): 5.19 µM
TGI (SK-MEL-28 melanoma): 11 µM
GI50 (SK-MEL-5 melanoma): 4.14 µM
TGI (SK-MEL-5 melanoma): 9.43 µM
GI50 (SK-OV-3 ovarian): 3.81 µM
TGI (SK-OV-3 ovarian): > 25 µM
GI50 (SN12C renal): 7.09 µM
TGI (SN12C renal): > 25 µM
GI50 (SNB-19 CNS): 16.1 µM
TGI (SNB-19 CNS): > 25 µM
GI50 (SNB-75 CNS): 7.22 µM
TGI (SNB-75 CNS): 24.8 µM
GI50 (SW-620 colon): 7.88 µM
TGI (SW-620 colon): > 25 µM
GI50 (T-47D breast): 6.85 µM
TGI (T-47D breast): > 25 µM
GI50 (TK-10 renal): 2.34 µM
TGI (TK-10 renal): > 25 µM
GI50 (U251 CNS): 6.7 µM
TGI (U251 CNS): > 25 µM
GI50 (UACC-257 melanoma): 4.22 µM
TGI (UACC-257 melanoma): 9.25 µM
GI50 (UACC-62 melanoma): 6.54 µM
TGI (UACC-62 melanoma): > 23 µM
GI50 (UO-31 renal): 0.969 µM
TGI (UO-31 renal): > 11.7 µM

Source: PubChem BioAssay (NCI)
